≈ marks a conversion by molar mass, not a printed value.
Assays:
Type in all cases: cell-based
[1] = tested on: M. morganii IFO 3848; experiment: MIC against standard strains (Table 1), M. morganii IFO 3848; conditions: Morganella morganii, IFO3848, Muller-Hinton agar, overnight 37° C., read-out: MIC (minimum growth inhibitory concentration)
Method: (§1) The minimum growth inhibitory concentration (MIC, μg/ml) of the compounds for each of the 25 standard laboratory strains (standard strains) shown in Table 1 was determined in accordance with the standard method of the Japan Chemotherapical Society (Chemotherapy, 29, 76-79 (1981) under "Re-revision of the measuring methods of minimum growth inhibitory concentration (MIC)").
(§2) That is, by using each test strain cultured overnight at 37° C. in a Muller-Hinton broth, there was prepared a bacterial solution with a cell density of 1×10^6 CFU/ml in the same broth. The bacterial solution was inoculated into the Muller-Hinton agar media each containing respectively one test agent (i.e., compound) and, after overnight incubation at 37° C., the minimum concentration that inhibited growth of the bacteria was determined and expressed as MIC.
(§3) Staphylococcus aureus 167 and Staphylococcus aureus 195 used in the test were MRSA. CTM (cefotiam) and FMOX (flomoxef) were used as the control agents.

[2] = tested on: S. aureus 195; experiment: MIC against standard strains (Table 1), S. aureus 195 (MRSA); conditions: Staphylococcus aureus, Muller-Hinton agar, overnight 37° C., read-out: MIC (minimum growth inhibitory concentration)
Method: as §1, §2, §3

[3] = tested on: S. aureus Smith; experiment: MIC against standard strains (Table 1), S. aureus Smith; conditions: Staphylococcus aureus, Muller-Hinton agar, overnight 37° C., read-out: MIC (minimum growth inhibitory concentration)
Method: as §1, §2, §3

[4] = tested on: P. aeruginosa NCTC 10490; experiment: MIC against standard strains (Table 1), P. aeruginosa NCTC 10490; conditions: Pseudomonas aeruginosa, NCTC10490, Muller-Hinton agar, overnight 37° C., read-out: MIC (minimum growth inhibitory concentration)
Method: as §1, §2, §3

[5] = tested on: B. subtilis ATCC 6633; experiment: MIC against standard strains (Table 1), B. subtilis ATCC 6633; conditions: Bacillus subtilis, ATCC6633, Muller-Hinton agar, overnight 37° C., read-out: MIC (minimum growth inhibitory concentration)
Method: as §1, §2, §3

[6] = tested on: E. coli CSH2(RE45); experiment: MIC against standard strains (Table 1), E. coli CSH2(RE45); conditions: Escherichia coli, read-out: MIC (minimum growth inhibitory concentration)
Method: as §1, §2, §3

[7] = tested on: P. vulugaris OX-19; experiment: MIC against standard strains (Table 1), P. vulugaris OX-19; conditions: Muller-Hinton agar, overnight 37° C., read-out: MIC (minimum growth inhibitory concentration)
Method: as §1, §2, §3

[8] = tested on: E. cloacae Nek39; experiment: MIC against standard strains (Table 1), E. cloacae Nek39; conditions: Enterobacter cloacae, Muller-Hinton agar, overnight 37° C., read-out: MIC (minimum growth inhibitory concentration)
Method: as §1, §2, §3

[9] = tested on: P. mirabilis IFO 3849; experiment: MIC against standard strains (Table 1), P. mirabilis IFO 3849; conditions: Proteus mirabilis, IFO3849, Muller-Hinton agar, overnight 37° C., read-out: MIC (minimum growth inhibitory concentration)
Method: as §1, §2, §3

[10] = tested on: S. aureus 209p JC-1; experiment: MIC against standard strains (Table 1), S. aureus 209p JC-1; conditions: Staphylococcus aureus, Muller-Hinton agar, overnight 37° C., read-out: MIC (minimum growth inhibitory concentration)
Method: as §1, §2, §3

[11] = tested on: C. freundii ATCC 8090; experiment: MIC against standard strains (Table 1), C. freundii ATCC 8090; conditions: Citrobacter freundii, ATCC8090, Muller-Hinton agar, overnight 37° C., read-out: MIC (minimum growth inhibitory concentration)
Method: as §1, §2, §3

[12] = tested on: M. luteus ATCC 9341; experiment: MIC against standard strains (Table 1), M. luteus ATCC 9341; conditions: Micrococcus luteus, ATCC9341, Muller-Hinton agar, overnight 37° C., read-out: MIC (minimum growth inhibitory concentration)
Method: as §1, §2, §3

[13] = tested on: S. epidemidis IAM 1296; experiment: MIC against standard strains (Table 1), S. epidemidis IAM 1296; conditions: Muller-Hinton agar, overnight 37° C., read-out: MIC (minimum growth inhibitory concentration)
Method: as §1, §2, §3

[14] = tested on: A. faecalis ATCC 3750; experiment: MIC against standard strains (Table 1), A. faecalis ATCC 3750; conditions: Alcaligenes faecalis, ATCC3750, Muller-Hinton agar, overnight 37° C., read-out: MIC (minimum growth inhibitory concentration)
Method: as §1, §2, §3

[15] = tested on: P. aeruginosa AKR17; experiment: MIC against standard strains (Table 1), P. aeruginosa AKR17; conditions: Pseudomonas aeruginosa, Muller-Hinton agar, overnight 37° C., read-out: MIC (minimum growth inhibitory concentration)
Method: as §1, §2, §3

[16] = tested on: E. cloacae ATCC 13407; experiment: MIC against standard strains (Table 1), E. cloacae ATCC 13407; conditions: Enterobacter cloacae, ATCC13407, Muller-Hinton agar, overnight 37° C., read-out: MIC (minimum growth inhibitory concentration)
Method: as §1, §2, §3

[17] = tested on: P. cepacia CN 9113; experiment: MIC against standard strains (Table 1), P. cepacia CN 9113; conditions: Burkholderia cepacia, CN9113, Muller-Hinton agar, overnight 37° C., read-out: MIC (minimum growth inhibitory concentration)
Method: as §1, §2, §3

[18] = tested on: S. aureus 167; experiment: MIC against standard strains (Table 1), S. aureus 167 (MRSA); conditions: Staphylococcus aureus, Muller-Hinton agar, overnight 37° C., read-out: MIC (minimum growth inhibitory concentration)
Method: as §1, §2, §3

[19] = tested on: K. pneuminiae IFO 3317; experiment: MIC against standard strains (Table 1), K. pneuminiae IFO 3317; conditions: Muller-Hinton agar, overnight 37° C., read-out: MIC (minimum growth inhibitory concentration)
Method: as §1, §2, §3

[20] = tested on: A. calcoaceticos T59; experiment: MIC against standard strains (Table 1), A. calcoaceticos T59; conditions: Muller-Hinton agar, overnight 37° C., read-out: MIC (minimum growth inhibitory concentration)
Method: as §1, §2, §3

[21] = tested on: S. marcescens IAM 1184; experiment: MIC against standard strains (Table 1), S. marcescens IAM 1184; conditions: Serratia marcescens, IAM1184, Muller-Hinton agar, overnight 37° C., read-out: MIC (minimum growth inhibitory concentration)
Method: as §1, §2, §3

[22] = tested on: E. coli CSH2(RK1); experiment: MIC against standard strains (Table 1), E. coli CSH2(RK1); conditions: Escherichia coli, read-out: MIC (minimum growth inhibitory concentration)
Method: as §1, §2, §3

[23] = tested on: E. coli JC-2; experiment: MIC against standard strains (Table 1), E. coli JC-2; conditions: Escherichia coli, JC2, Muller-Hinton agar, overnight 37° C., read-out: MIC (minimum growth inhibitory concentration)
Method: as §1, §2, §3

[24] = tested on: S. marcescens No. 16-2; experiment: MIC against standard strains (Table 1), S. marcescens No. 16-2; conditions: Serratia marcescens, NO.162, Muller-Hinton agar, overnight 37° C., read-out: MIC (minimum growth inhibitory concentration)
Method: as §1, §2, §3

[25] = tested on: K. pneuminiae No. 42; experiment: MIC against standard strains (Table 1), K. pneuminiae No. 42; conditions: Muller-Hinton agar, overnight 37° C., read-out: MIC (minimum growth inhibitory concentration)
Method: as §1, §2, §3

[26] = tested on: clinically isolated MRSA; experiment: Antibacterial potency against clinically isolated MRSA (47 strains); conditions: Staphylococcus aureus
Method: A test on the antibacterial potency against clinically isolated MRSA was conducted in the following way.
That is, using 47 strains of clinically isolated MRSA, MIC was determined for each of the test strains in accordance with the standard method of the Japan Chemotherapical Society as in Test Example 1, and the minimum growth inhibitory concentration which inhibited growth of 50% of the strains tested was expressed as MIC50 (μg/ml), and the minimum growth inhibitory concentration which inhibited growth of 90% of the strains tested was expressed as MIC90 (μg/ml).
In this test, FMOX was used as the control agent.

Compound	MIC [1]	MIC [2]	MIC [3]	MIC [4]	MIC [5]	MIC [6]	MIC [7]	MIC [8]	MIC [9]	MIC [10]	MIC [11]	MIC [12]	MIC [13]	MIC [14]	MIC [15]	MIC [16]	MIC [17]	MIC [19]	MIC [20]	MIC [21]	also measured
CN(C)CCn1nnnc1SCC1=C(C(=O)O)N2C(=O)[C@@H](NC(=O)Cc3csc(N)n3)[C@H]2SC1 [CTM, cefotiam, reference compound]	0.2 µg/mL (≈ 0.38 µM)	> 100 µg/mL	0.78 µg/mL (≈ 1.48 µM)	100 µg/mL (≈ 190 µM)	0.39 µg/mL (≈ 0.742 µM)	0.39 µg/mL (≈ 0.742 µM)	0.39 µg/mL (≈ 0.742 µM)	> 100 µg/mL	0.39 µg/mL (≈ 0.742 µM)	0.78 µg/mL (≈ 1.48 µM)	0.78 µg/mL (≈ 1.48 µM)	0.39 µg/mL (≈ 0.742 µM)	0.39 µg/mL (≈ 0.742 µM)	3.13 µg/mL (≈ 5.95 µM)	> 100 µg/mL	> 100 µg/mL	> 100 µg/mL	0.2 µg/mL (≈ 0.38 µM)	> 100 µg/mL	3.13 µg/mL (≈ 5.95 µM)	MIC [18]: > 100 µg/mL; MIC [22]: 0.2 µg/mL (≈ 0.38 µM); MIC [23]: 0.2 µg/mL (≈ 0.38 µM); MIC [24]: > 100 µg/mL; MIC [25]: 0.39 µg/mL (≈ 0.742 µM)
Nc1nc(/C(=N/O)C(=O)N[C@@H]2C(=O)N3C(C(=O)[O-])=C(/C=C/C[n+]4cccc(-c5csc(N)n5)c4)CS[C@H]23)cs1 [Compound 12, 7β-[2-(2-aminothiazol-4-yl)-2-syn-hydroxyiminoacetamido]-3-[(E)-3-[3-(2-aminothiazol-4-yl)pyridinio]-1-propenyl]-3-cephem-4-carboxylate]	0.025 µg/mL (≈ 0.0428 µM)	1.56 µg/mL (≈ 2.67 µM)	0.1 µg/mL (≈ 0.171 µM)	3.13 µg/mL (≈ 5.35 µM)	0.2 µg/mL (≈ 0.342 µM)	0.1 µg/mL (≈ 0.171 µM)	0.05 µg/mL (≈ 0.0855 µM)	6.25 µg/mL (≈ 10.7 µM)	0.1 µg/mL (≈ 0.171 µM)	0.1 µg/mL (≈ 0.171 µM)	0.05 µg/mL (≈ 0.0855 µM)	0.05 µg/mL (≈ 0.0855 µM)	0.05 µg/mL (≈ 0.0855 µM)	1.56 µg/mL (≈ 2.67 µM)	> 100 µg/mL	0.39 µg/mL (≈ 0.667 µM)	> 100 µg/mL	0.05 µg/mL (≈ 0.0855 µM)	12.5 µg/mL (≈ 21.4 µM)	0.1 µg/mL (≈ 0.171 µM)	MIC [18]: 25 µg/mL (≈ 42.8 µM); MIC [22]: 0.2 µg/mL (≈ 0.342 µM); MIC [23]: 0.05 µg/mL (≈ 0.0855 µM); MIC [24]: 12.5 µg/mL (≈ 21.4 µM); MIC [25]: 0.1 µg/mL (≈ 0.171 µM)
CO[C@@]1(NC(=O)CSC(F)F)C(=O)N2C(C(=O)O)=C(CSc3nnnn3CCO)CO[C@@H]21 [FMOX, flomoxef, reference compound]	0.39 µg/mL (≈ 0.786 µM)	3.13 µg/mL (≈ 6.3 µM)	0.39 µg/mL (≈ 0.786 µM)	> 100 µg/mL	0.2 µg/mL (≈ 0.403 µM)	0.1 µg/mL (≈ 0.201 µM)	0.39 µg/mL (≈ 0.786 µM)	100 µg/mL (≈ 201 µM)	0.2 µg/mL (≈ 0.403 µM)	0.39 µg/mL (≈ 0.786 µM)	0.2 µg/mL (≈ 0.403 µM)	0.1 µg/mL (≈ 0.201 µM)	0.2 µg/mL (≈ 0.403 µM)	0.1 µg/mL (≈ 0.201 µM)	> 100 µg/mL	100 µg/mL (≈ 201 µM)	100 µg/mL (≈ 201 µM)	0.05 µg/mL (≈ 0.101 µM)	100 µg/mL (≈ 201 µM)	0.2 µg/mL (≈ 0.403 µM)	MIC50 ([26]; concentration inhibiting growth of 50% of 47 clinically isolated MRSA strains): 5.13 µg/mL (≈ 10.3 µM); MIC90 ([26]; concentration inhibiting growth of 90% of 47 clinically isolated MRSA strains): 32.1 µg/mL (≈ 64.6 µM); MIC [22]: 0.1 µg/mL (≈ 0.201 µM); MIC [23]: 0.1 µg/mL (≈ 0.201 µM); MIC [24]: 100 µg/mL (≈ 201 µM); MIC [25]: 0.1 µg/mL (≈ 0.201 µM)

— patent US5534508A, “Cephem compounds and antimicrobial agents” (Katayama Seiyakusyo Co., Ltd., priority 1993, dated 1996)
